For assay [1], the system named is LNCaP. The assay is described as follows: Anticancer activity was determined by the inhibition of colony formation in liquid culture of up to the concentration 31.6 ug/mL; NI means No inhibition. In kind it is functional, cell-based. As to conditions: Homo sapiens.
Assay [2] deals with L1210. Briefly: Anticancer activity was determined by the inhibition of colony formation in liquid culture of L-1210 leukemia cells up to the concentration 31.6 ug/mL; NI means No inhibition. The class given is functional, cell-based. The following applies: Mus musculus.
Assay [3] is filed under the species Homo sapiens. Briefly: Anticancer activity was determined by the inhibition of colony formation in liquid culture of KB human epidermoid carcinoma cells up to the concentration 31.6 ug/mL; NI means No inhibition. The class given is functional.
Assay [4] deals with SK-OV-3. The assay is described as follows: Anticancer activity was determined by the inhibition of colony formation in liquid culture of SK-OV-3 ovarian cancer cells up to the concentration 31.6 ug/mL; NI means No inhibition. In kind it is functional, cell-based. The following applies: Homo sapiens.
In assay [5] the test system is P388. The assay is described as follows: Anticancer activity against lymphocytic leukemia P388 cells was determined. In kind it is functional. The following applies: Mus musculus, read-out: ED50 (the source's name).

Converted amounts (≈) assume the structure as drawn. The source made the active and inactive calls. The calls are words filed in the database; no cut-off is given here. Square brackets hold non-standard residues; d marks the D form. Peptide text beside a SMILES is read from it. * marks the point of attachment. X1 = COC1=CC(=O)N(C(=O)[C@@H](O*)C(C)C)[C@H]1Cc1ccccc1; NMe2Val = CC(C)[C@@H](C(=O)*)N(C)C; NMeV = CN[C@H](C(=O)O)C(C)C

For `CC(=O)N(CC(=O)N(CC(=O)N1CCC[C@@H]1C(=O)N1CCC[C@@H]1C(=O)N(CC(=O)N(CC(=O)N(C(C)C)C(C)C)C(C)C)C(C)C)C(C)C)Cc1ccccc1` (single isomer, unassigned), the result in assay [1], in assay [2], in assay [3] and in assay [4] was inactive.

As for `CC(=O)N(CC(=O)N(CC(=O)N1CCC[C@@H]1C(=O)N1CCC[C@@H]1C(=O)N(CC(=O)N(CC(=O)N(C(C)C)C(C)C)C(C)C)Cc1ccccc1)C(C)C)Cc1ccccc1` (single isomer, unassigned), the outcome in assay [1], in assay [2], in assay [3] and in assay [4] was inactive.

On to `CC[C@H](C)[C@@H]([C@@H](CC(=O)N1CCC[C@H]1[C@H](OC)[C@@H](C)C(=O)N[C@@H](Cc1ccccc1)c1nccs1)OC)N(C)C(=O)[C@@H](NC(=O)[C@H](C(C)C)N(C)C)C(C)C` [DOLASTATIN-10], for which, in assay [5], the EC50 stood at 0.1 ng/mL (≈ 0.127 nM).

Turning to `CC(=O)N(CC(=O)N(CC(=O)N1CCCC1C(=O)N1CCC[C@H]1C(=O)N(CC(=O)N(CC(=O)N(C(C)C)C(C)C)C(C)C)C(C)C)C(C)C)Cc1ccccc1` (single isomer, unassigned), the outcome in assay [1], in assay [2], in assay [3] and in assay [4] was inactive.

Turning to `CC(=O)N(CC(=O)N(CC(=O)N1CCC[C@@H]1C(=O)N1CCC[C@@H]1C(=O)N(CC(=O)N(CC(=O)O)C(C)C)C(C)C)C(C)C)Cc1ccccc1` (single isomer, unassigned), the outcome in assay [1], in assay [2], in assay [3] and in assay [4] was inactive.

Regarding `CC(C)N(CC(=O)N(C(C)C)C(C)C)C(=O)CN(C(=O)[C@H]1CCCN1C(=O)[C@H]1CCCN1C(=O)OCc1ccccc1)C(C)C` (single isomer, unassigned), the result in assay [1], in assay [2], in assay [3] and in assay [4] was inactive.

Take `COC1=CC(=O)N(C(=O)[C@@H](OC(=O)[C@@H]2CCCN2C(=O)[C@@H]2CCCN2C(=O)[C@H](C(C)C)N(C)C(=O)[C@@H](NC(=O)[C@H](C(C)C)N(C)C)C(C)C)C(C)C)[C@H]1Cc1ccccc1` [DOLASTATIN 15] (NMe2Val-V[NMeV]PP-X1): the EC50 in assay [5] was found to be 2.4 ng/mL (≈ 2.87 nM).

As for `CC(=O)N(CC(=O)N(CC(=O)N1CCC[C@H]1C(=O)N1CCC[C@H]1C(=O)N(CC(=O)N(CC(=O)N(C(C)C)C(C)C)C(C)C)C(C)C)C(C)C)Cc1ccccc1`, the result in assay [1], in assay [2], in assay [3] and in assay [4] was inactive.

With `CC(C)N(CC(=O)O)C(=O)CN(C(=O)[C@H]1CCCN1C(=O)[C@H]1CCCN1C(=O)CN(C(=O)CNCc1ccccc1)C(C)C)C(C)C` (single isomer, unassigned), the result in assay [1], in assay [2], in assay [3] and in assay [4] was inactive.

Turning to `CC(=O)N(CC(=O)N(CC(=O)N1CCC[C@H]1C(=O)N1CCCC1C(=O)N(CC(=O)N(CC(=O)N(C(C)C)C(C)C)C(C)C)C(C)C)C(C)C)Cc1ccccc1` (single isomer, unassigned), the outcome in assay [1], in assay [2], in assay [3] and in assay [4] was inactive.
